Assay results as given in ChEMBL document CHEMBL1136993, “Efficient chemoenzymatic synthesis, cytotoxic evaluation, and SAR of epoxysterols” (J Med Chem, 2009).

Columns and labels:
HT-29 = test: Cytotoxicity against human HT-29 cells after 48 hrs by Alamar Blue assay; format: functional, cell-based; conditions: HT-29, 48 h
LAMA-84 = test: Cytotoxicity against human LAMA-84 cells after 48 hrs by Alamar Blue assay; format: functional, cell-based; conditions: LAMA-84, 48 h
BJ = test: Cytotoxicity against human BJ cells after 48 hrs by Alamar Blue assay; format: cell-based

Row | Compound | IC50 (HT-29) [µM] | IC50 (LAMA-84) [µM] | IC50 (BJ) [µM]
1 | CC(C)CCC[C@@H](C)[C@H]1CC[C@H]2[C@@H]3CC[C@@]45O[C@@H]4[C@@H](O)CC[C@]5(C)[C@H]3CC[C@]12C | 61.9 |  | 
2 | CC(C)CCC[C@@H](C)[C@H]1CC[C@H]2[C@@H]3CC[C@]45O[C@H]4[C@@H](O)CC[C@]5(C)[C@H]3CC[C@]12C | 22.6 | 11.2 | 31.4
3 | CC(C)CCC[C@@H](C)[C@H]1CC[C@H]2[C@@H]3[C@@H]4O[C@@]45C[C@@H](O)CC[C@]5(C)[C@H]3CC[C@]12C | 40.9 |  | 
4 | CC(C)CCC[C@@H](C)[C@H]1CC[C@H]2[C@@H]3C[C@@H]4O[C@@]45[C@@H](O)[C@@H](O)CC[C@]5(C)[C@H]3CC[C@]12C | 38.2 |  | 
5 | CC(C)CCC[C@@H](C)[C@H]1CC[C@H]2[C@@H]3C[C@H]4O[C@]45[C@@H](O)[C@@H](O)CC[C@]5(C)[C@H]3CC[C@]12C | 17.7 | 8 | 20.4
6 | CC(C)CCC[C@@H](C)[C@H]1CC[C@H]2[C@@H]3[C@H](O)C=C4C[C@@H](O)CC[C@]4(C)[C@H]3CC[C@]12C | 15.5 |  | 
7 | CC(C)CCC[C@@H](C)[C@H]1CC[C@H]2[C@@H]3[C@H](O)[C@@H]4O[C@@]45C[C@@H](O)CC[C@]5(C)[C@H]3CC[C@]12C | 33.8 |  | 
8 | CC(C)CCC[C@@H](C)[C@H]1CC[C@H]2[C@@H]3CC=C4[C@@H](O)[C@@H](O)CC[C@]4(C)[C@H]3CC[C@]12C | > 50 |  | 
9 | CC(C)CCC[C@@H](C)[C@H]1CC[C@H]2[C@@H]3C[C@@H]4O[C@@]45C[C@@H](O)CC[C@]5(C)[C@H]3CC[C@]12C | > 50 |  | 
10 | CC(C)CCC[C@@H](C)[C@H]1CC[C@H]2[C@@H]3C[C@H]4O[C@]45C[C@@H](O)CC[C@]5(C)[C@H]3CC[C@]12C | 37.6 |  | 
11 | CC(C)CCC[C@@H](C)[C@H]1CC[C@H]2[C@@H]3[C@@H](O)[C@H]4O[C@]45C[C@@H](O)CC[C@]5(C)[C@H]3CC[C@]12C | 8.3 | 7 | 19.5
12 | CC(C)CCC[C@@H](C)[C@H]1CC[C@H]2[C@@H]3[C@@H](O)C=C4C[C@@H](O)CC[C@]4(C)[C@H]3CC[C@]12C | 6.4 | 4.8 | 20.1
13 | CC(C)CCC[C@@H](C)[C@H]1CC[C@H]2[C@@H]3[C@@H](O)[C@@H]4O[C@@]45C[C@@H](O)CC[C@]5(C)[C@H]3CC[C@]12C | 13.3 | 4.1 | 13.4
14 | CC(C)CCC[C@@H](C)[C@H]1CC[C@H]2[C@@H]3CCC4=C[C@@H](O)CC[C@]4(C)[C@H]3CC[C@]12C | > 50 |  | 
15 | CC(=O)O[C@H]1CC[C@]2(C)[C@H]3CC[C@]4(C)[C@@H]([C@H](C)CCCC(C)C)CC[C@H]4[C@@H]3C[C@H]3O[C@]32[C@H]1O | 28.2 |  | 
16 | CC(=O)O[C@H]1[C@@H](O)CC[C@]2(C)[C@H]3CC[C@]4(C)[C@@H]([C@H](C)CCCC(C)C)CC[C@H]4[C@@H]3C[C@H]3O[C@@]312 | 15.9 | 8.1 | 
17 | CC(=O)O[C@H]1CC[C@@]2(C)C(=C[C@H](O)[C@H]3[C@@H]4CC[C@H]([C@H](C)CCCC(C)C)[C@@]4(C)CC[C@@H]32)C1 | 29.4 |  | 
18 | CC(C)CCC[C@@H](C)[C@H]1CC[C@H]2[C@@H]3CC=C4C[C@@H](O)CC[C@]4(C)[C@H]3CC[C@]12C [CHOLESTEROL] | > 50 |  | 
19 | COc1cccc2c1C(=O)c1c(O)c3c(c(O)c1C2=O)C[C@@](O)(C(=O)CO)C[C@@H]3O[C@H]1C[C@H](N)[C@H](O)[C@H](C)O1 [DOXORUBICIN] | 1.15 | 0.76 | 2.7
